Among the test systems are NCI-H522 lung; HOP-62 NSCLC; HS 578T breast; T-47D breast; UO-31 renal; K-562 leukemia; OVCAR-8 ovarian; HL-60(TB) leukemia; MALME-3M melanoma; A498 renal.
Common to all, as to test: inhibition of tumour cell growth, NCI panel, 48 h

Where “and” joins values, the source holds several entries; their conditions need not be identical. Equal entries are not always repeated.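 1) Cells in 96-well plates. 2) Compound, 48 h, 5 concentrations. 3) Linear interpolation between surrounding doses. 4) Unreached endpoint = highest concentration. GI50 marks 50% less growth. TGI: concentration producing complete growth inhibition.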 Where only a bound is given, the exact number is not on record here.

Consider `COc1cc2c3c(n(CCCCl)c(=O)c2cc1OC)-c1ccccc1C3=O`, for which the GI50 in the test with NCI-H522 lung was 5.31 µM; with HOP-62 NSCLC, 4.49 µM; in the test with HS 578T breast, 23.5 µM; in the test with T-47D breast, > 100 µM; with UO-31 renal it was > 100 µM; in the test with K-562 leukemia, > 100 µM. In the test with OVCAR-8 ovarian, the GI50 was 13.4 µM. Moreover, the TGI is > 100 µM in the test with NCI-H522 lung; 44.5 µM with HOP-62 NSCLC; > 100 µM in the test with HS 578T breast; > 100 µM in the test on T-47D breast; > 100 µM in the test on UO-31 renal; > 100 µM in the test on K-562 leukemia. Moreover, in the test on OVCAR-8 ovarian, the TGI is > 100 µM.

`Cc1cc(NS(=O)(=O)c2ccc(NC(=O)c3cccc4c(=O)c5ccccc5[nH]c34)cc2)no1`: the TGI in the test on NCI-H522 lung was 56.6 µM; in the test on HL-60(TB) leukemia, 74.6 µM; in the test on MALME-3M melanoma, > 100 µM; in the test with HOP-62 NSCLC, 50.6 µM; in the test with UO-31 renal it was 72.8 µM; with K-562 leukemia, > 100 µM. Besides, the TGI came out at 79 µM in the test on A498 renal and 67.4 µM in the test on OVCAR-8 ovarian.

With `COc1cc(-c2c(C#N)c(N)n3c(nc4ccccc43)c2C#N)cc(Br)c1OC`, the GI50 in the test on NCI-H522 lung is 79.7 µM; with HL-60(TB) leukemia, > 100 µM; in the test with HOP-62 NSCLC, > 100 µM; with HS 578T breast, 2.71 µM; with UO-31 renal, 4.13 µM; in the test on K-562 leukemia, > 100 µM. For the same molecule, in the test with A498 renal, the GI50 was > 100 µM. Further, the TGI with NCI-H522 lung, in the test on HL-60(TB) leukemia, in the test with HOP-62 NSCLC, in the test on HS 578T breast, with UO-31 renal and with K-562 leukemia was > 100 µM throughout. Also, in the test with A498 renal, the TGI is > 100 µM.

On to `CCCCCCCCCCC(O)C1CCC(C2CCC(C(O)CCCCC(O)CCCCCC(O)CC3=CC(C)OC3=O)O2)O1` (stereo not drawn), for which the TGI is > 25 µM with NCI-H522 lung; 8.62 µM and > 25 µM with HL-60(TB) leukemia; > 25 µM in the test on MALME-3M melanoma; > 25 µM with HOP-62 NSCLC; > 25 µM in the test with T-47D breast; 9.95 µM and > 25 µM in the test with UO-31 renal. In addition, the TGI in the test on K-562 leukemia and with A498 renal was > 25 µM in each case. Also, the GI50 in the test on HL-60(TB) leukemia was > 25 µM; in the test with HOP-62 NSCLC it was 7.3 µM; in the test on T-47D breast, 7.17 µM; in the test with UO-31 renal, 1.74 µM; with K-562 leukemia, 1.81 µM; in the test with A498 renal, 5.27 µM.

With `COc1ccc(OC)c(/C=C/NC=O)c1`, the TGI in the test with NCI-H522 lung, in the test on HL-60(TB) leukemia, in the test with MALME-3M melanoma, with HOP-62 NSCLC, in the test with UO-31 renal and in the test with K-562 leukemia was > 100 µM in each case. Also, the TGI with A498 renal and in the test with OVCAR-8 ovarian was > 100 µM in each case.

As for `Cc1ccc(N=NC(C(=O)c2ccccc2)C(=O)c2ccccc2)cc1`, the TGI in the test with NCI-H522 lung was 44.3 µM; in the test with HL-60(TB) leukemia it was 33.7 µM; with MALME-3M melanoma, > 100 µM; with HOP-62 NSCLC, 71.9 µM; in the test with UO-31 renal, 44.4 µM; in the test on K-562 leukemia, 88.2 µM. For the same molecule, the TGI in the test on A498 renal and in the test on OVCAR-8 ovarian was > 100 µM each time.

With `COC(=O)C(=O)C(C(=O)C=C(C)C)C(=O)C(=O)Nc1ccc(Cl)cc1C` (stereo not drawn), the TGI with NCI-H522 lung, with HL-60(TB) leukemia, with MALME-3M melanoma, with HOP-62 NSCLC, in the test on UO-31 renal and with K-562 leukemia was > 100 µM in each case. Also, the TGI with A498 renal and in the test with OVCAR-8 ovarian was > 100 µM each time.

Take `N#CCCN(CCC#N)c1ccc(/C=C2\N=C(CN3C(=O)c4ccccc4C3=O)OC2=O)cc1`: the TGI in the test with NCI-H522 lung, in the test on HL-60(TB) leukemia, with MALME-3M melanoma, in the test on HOP-62 NSCLC, in the test on UO-31 renal and in the test on K-562 leukemia was > 100 µM in each case. Besides, the TGI in the test with A498 renal and with OVCAR-8 ovarian was > 100 µM throughout.

Consider `CC[C@H](C)[C@H](NC(=O)[C@H]1CCCCN1C)C(=O)N(C)[C@H](CCc1nc(C(=O)N[C@@H](Cc2ccccc2)C[C@H](C)C(=O)OC)cs1)C(C)C`, for which the GI50 in the test on NCI-H522 lung was 0.0446 µM; in the test on HL-60(TB) leukemia, 0.0677 µM; with MALME-3M melanoma, 3.71 µM; in the test on HOP-62 NSCLC it was 0.777 µM; with HS 578T breast, 0.322 µM; in the test on UO-31 renal, 1.78 µM. Further, the GI50 in the test on K-562 leukemia is 0.121 µM; in the test with A498 renal it was 0.14 µM; in the test on OVCAR-8 ovarian, 0.717 µM. Moreover, the TGI in the test with NCI-H522 lung was 0.143 µM; in the test on HL-60(TB) leukemia, 0.242 µM; in the test on MALME-3M melanoma, > 25 µM; in the test with HOP-62 NSCLC, > 22.9 µM; with HS 578T breast, 5.29 µM; in the test with UO-31 renal it was 13.7 µM. The values for the TGI with K-562 leukemia, in the test on A498 renal and with OVCAR-8 ovarian were > 25 µM, 2.75 µM and > 25 µM, respectively.

Turning to `CN(C)C(=S)/N=c1\ss/c(=N\C(=S)N(C)C)n1-c1ccc2c(c1)OCO2`, the TGI with NCI-H522 lung, with HL-60(TB) leukemia, in the test with MALME-3M melanoma, in the test with HOP-62 NSCLC, in the test with UO-31 renal and with K-562 leukemia was > 100 µM throughout. Moreover, the TGI with A498 renal and in the test on OVCAR-8 ovarian was > 100 µM each time.

For the origin of these results see PubChem BioAssay (NCI).
